In the NIST ThermoML archive (doi:10.1016/j.jct.2008.09.020):
Several values for one entry are separate records, joined by “and”; a condition that tells them apart may be missing. Equal values may be shown once. ± gives the expanded uncertainty stated by the source.

Settings: 313.15 K; Liquid; Ebulliometric method (Recirculating still)

vapor or sublimation pressure	Compound
31.63 ± 0.17 kPa and 31.64 ± 0.17 kPa	CCOC(C)(C)C [2-ethoxy-2-methylpropane]
44.96 ± 0.28 kPa and 44.94 ± 0.28 kPa	C=CCCCC [hex-1-ene]

Compound	vapor or sublimation pressure
Cc1ccccc1 [toluene]	7.869 ± 0.07 kPa and 7.872 ± 0.07 kPa
